According to ChEMBL document CHEMBL4229400, “Covalent inhibitors of nicotinamide N-methyltransferase (NNMT) provide evidence for target engagement challenges in situ” (Bioorg Med Chem Lett, 2018):
Residue numbers refer to the chain shown, from its start. The source made the active and inactive calls. The calls are words filed in the database; no cut-off is given here.

Legend:
[1] = biological target: T1, Nicotinamide N-methyltransferase (Homo sapiens) (UniProt P40261); test: Binding affinity to NNMT C165 residue in human 786-O cell soluble proteomic lysate at 5 uM incubated for 1 hr followed by cell lysis by IA-alkyne probe based isoTOP-ABPP analysis relative to control
T1 sequence (whole entry): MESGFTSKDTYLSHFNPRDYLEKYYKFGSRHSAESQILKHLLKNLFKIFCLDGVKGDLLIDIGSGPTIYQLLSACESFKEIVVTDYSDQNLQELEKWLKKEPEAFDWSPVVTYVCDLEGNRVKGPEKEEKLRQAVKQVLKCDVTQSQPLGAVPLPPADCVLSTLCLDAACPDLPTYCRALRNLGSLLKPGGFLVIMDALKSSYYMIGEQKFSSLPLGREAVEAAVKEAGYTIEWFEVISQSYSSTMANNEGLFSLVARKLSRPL

[2] = biological target: T2, 5'-nucleotidase domain-containing protein 2 (Homo sapiens) (UniProt Q9H857); test: Binding affinity to NT5DC2 cysteine residue in human 786-O cell soluble proteomic lysate at 5 uM incubated for 1 hr followed by cell lysis by IA-alkyne probe based isoTOP-ABPP analysis
T2 sequence (whole entry): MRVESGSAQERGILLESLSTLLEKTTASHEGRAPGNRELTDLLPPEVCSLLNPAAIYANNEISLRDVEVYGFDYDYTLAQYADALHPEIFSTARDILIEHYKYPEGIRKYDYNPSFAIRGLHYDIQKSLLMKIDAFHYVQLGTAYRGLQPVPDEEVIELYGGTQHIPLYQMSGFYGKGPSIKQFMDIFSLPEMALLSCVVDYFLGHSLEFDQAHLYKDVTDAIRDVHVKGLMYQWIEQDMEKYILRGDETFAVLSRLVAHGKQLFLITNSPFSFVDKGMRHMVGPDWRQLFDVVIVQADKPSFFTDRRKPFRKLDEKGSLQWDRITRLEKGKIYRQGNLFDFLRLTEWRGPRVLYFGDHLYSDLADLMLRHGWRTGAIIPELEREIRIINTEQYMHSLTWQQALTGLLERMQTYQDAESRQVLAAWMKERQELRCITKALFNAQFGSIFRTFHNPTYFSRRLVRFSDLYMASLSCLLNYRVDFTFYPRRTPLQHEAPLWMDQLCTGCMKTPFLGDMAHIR

[3] = biological target: T3, Mitochondrial-processing peptidase subunit alpha (Homo sapiens) (UniProt Q10713); test: Binding affinity to PMPCA cysteine residue in human 786-O cell soluble proteomic lysate at 5 uM incubated for 1 hr followed by cell lysis by IA-alkyne probe based isoTOP-ABPP analysis
T3 sequence (whole entry): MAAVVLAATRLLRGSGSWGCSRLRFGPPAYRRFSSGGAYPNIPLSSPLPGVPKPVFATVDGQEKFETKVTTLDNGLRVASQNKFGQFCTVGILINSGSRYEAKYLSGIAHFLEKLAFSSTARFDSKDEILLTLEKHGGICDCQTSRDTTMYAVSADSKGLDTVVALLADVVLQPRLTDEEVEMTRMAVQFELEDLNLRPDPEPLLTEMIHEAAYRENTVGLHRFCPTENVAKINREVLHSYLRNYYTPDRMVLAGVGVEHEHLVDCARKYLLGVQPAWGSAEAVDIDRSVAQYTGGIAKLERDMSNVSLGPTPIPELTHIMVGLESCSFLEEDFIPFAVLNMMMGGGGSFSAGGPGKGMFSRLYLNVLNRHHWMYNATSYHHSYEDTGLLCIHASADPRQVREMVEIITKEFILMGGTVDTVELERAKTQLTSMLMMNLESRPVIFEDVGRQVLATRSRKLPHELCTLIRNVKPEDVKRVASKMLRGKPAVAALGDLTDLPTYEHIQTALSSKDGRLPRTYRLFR

[4] = biological target: T1, Nicotinamide N-methyltransferase (Homo sapiens); test: Binding affinity to NNMT C165 residue in human 786-O cell lysate at 5 uM incubated for 4 hrs followed by cell lysis by IA-alkyne probe based isoTOP-ABPP analysis
[5] = biological target: T4, Nicotinamide N-methyltransferase (Homo sapiens, UniProt P40261); test: Inhibition of NNMT in human 786-O cell lysate using d4-nicotinamide as substrate pretreated for 1 hr at 3 mins post 160 uM SAM addition followed by substrate addition measured after 15 to 30 mins by LC-MS analysis
T4 sequence (P40261 whole entry): T1 sequence (whole entry)

[6] = tested on: T5, Nicotinamide N-methyltransferase (Homo sapiens), P40261 [C165A]; test: Inhibition of NNMT C165A mutant in human 786-O cell lysate using d4-nicotinamide as substrate preincubated for 1 hr followed by substrate and SAM addition measured after 15 to 30 mins by LC-MS analysis
T5 sequence (whole entry): T1 sequence (whole entry) with C165A

[7] = biological target: T6, Heme oxygenase 2 (Homo sapiens) (UniProt P30519); test: Binding affinity to HMOX2 cysteine residue in human 786-O cell lysate at 5 uM incubated for 1 hr followed by cell lysis by IA-alkyne probe based isoTOP-ABPP analysis
T6 sequence (whole entry): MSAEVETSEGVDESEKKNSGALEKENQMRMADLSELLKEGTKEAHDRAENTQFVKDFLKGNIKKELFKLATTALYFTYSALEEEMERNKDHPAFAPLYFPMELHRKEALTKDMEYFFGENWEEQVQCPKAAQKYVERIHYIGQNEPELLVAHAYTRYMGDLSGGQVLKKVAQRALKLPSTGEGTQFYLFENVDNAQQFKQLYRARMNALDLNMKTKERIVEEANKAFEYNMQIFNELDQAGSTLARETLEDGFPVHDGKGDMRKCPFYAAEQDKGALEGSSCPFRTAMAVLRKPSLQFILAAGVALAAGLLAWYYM

[8] = biological target: T7, Thioredoxin domain-containing protein 17 (Homo sapiens) (UniProt Q9BRA2); test: Binding affinity to TXNDC17 cysteine residue in human 786-O cell soluble proteomic lysate at 5 uM incubated for 1 hr followed by cell lysis by IA-alkyne probe based isoTOP-ABPP analysis
T7 sequence (whole entry): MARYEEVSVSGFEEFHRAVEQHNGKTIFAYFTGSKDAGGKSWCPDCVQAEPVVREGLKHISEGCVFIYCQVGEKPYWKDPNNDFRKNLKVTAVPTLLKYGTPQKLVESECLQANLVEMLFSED

[9] = biological target: T1, Nicotinamide N-methyltransferase (Homo sapiens); test: Inhibition of SAH-rhodamine binding to NNMT in human 786-O cell soluble proteomic lysate assessed as ratio of observed rate constant to test compound concentration preincubated for 10 to 40 mins followed by SAH-rhodamine addition measured after 5 mins by Gel-based ABPP analysis
[10] = biological target: T1, Nicotinamide N-methyltransferase (Homo sapiens); test: Binding affinity to NNMT C165 residue in human 786-O cell soluble proteomic lysate at 1 to 5 uM incubated for 1 hr followed by cell lysis by IA-alkyne probe based isoTOP-ABPP analysis

SMILES	Activity [1]	Activity [2]	Activity [3]	Activity [4]	IC50 [5] [µM]	inhibition [6]	Activity [7]	Activity [8]	Ratio [9] [M⁻¹ s⁻¹]	Activity [10]
O=C(Nc1cccnc1Cl)c1cc(N(CCCc2ccccc2)C(=O)CCl)cc(C(F)(F)F)c1	inactive	Active	Active	–	–	–	–	–	–	–
CC(C)CCN(C(=O)CCl)c1cc(C(=O)NCc2cccc([N+](=O)[O-])c2)cc(C(F)(F)F)c1	–	–	–	inactive	> 100	inactive	Active	Active	285	Active
